Where two headings read alike, the source gives them in different places. Where no end group is shown, it is not given here.
Columns and labels:
[1] = system: C. albicans strain DIS; type: in vivo, mice ICR strain; details: mouse, in vivo
Protocol: A previously described protocol was adopted (14). Mice were immunosuppressed with two subcutaneous injections of prednisolone at a dose of 100 mg/kg body weight 1 day prior to and 3 days after the infection with C. albicans. Tetracycline hydrochloride in drinking water at a concentration of 0.83 mg/ml was given to mice beginning 1 day before infection. Mice were anesthetized by intramuscular injection with 60 μl of 2 mg/ml chlorpromazine chloride, using a dose of 10 mg/kg body weight of mice. While under anesthesia, a small cotton ball soaked in 0.1 ml aliquot of C. albicans cell suspension (2.5×10^6 cells) was used to swab the entire oral cavity of the anesthetized mice.
Visual evaluation was done by carefully extending the tongue of randomly picked mice using blunt-end forceps, while the mice were under isoflurane sedation. Presence of thick, white curd-like patches indicated candidal infection. At day 3 post-infection, all animals were examined for evidence oral candidal infection by microbiological evaluation. The entire oral cavity of anesthetized mice was swabbed using a sterile calcium alginate disposable swab (Fisher Scientific), dampened with sterile PBS. Cells were then released from the swab into 1 ml PBS. Serial 10-fold dilutions were plated on SDA plates supplemented with streptomycin (30 μg/ml). Plates were incubated for 24 h at 37° C. and yeast cell count expressed as log10 of cfu/ml.
Tongues from sacrificed animals were used for histological studies. They were fixed in 10% formalin and embedded in paraffin. Serial five-μm sections were cut from the paraffin block and stained with periodic acid-Schiff (PAS) reagent for detection of C. albicans.
Mice were randomly divided into various treatment groups with 8 mice per group. Antifungal agents were employed on an equimolar basis, and included amphotericin B (1.75%), clotrimazole (0.66%), MUC7 12-mer (RKSYKCLHKRCR—SEQ ID NO:1) (L; 3%), MUC7 12-mer (D; 3%), MUC7 12-mer (D; 3%) containing Na2EDTA (1 mM), MUC7 12-mer (L; 3%) containing protease inhibitor cocktail (PIC) (1%), and Hsn5 12-mer (AKRHHGYKRKFH—SEQ ID NO:2) (3%). They were all emulsified in Pluronic F127, (20% lipoil), a polymer of polyoxyethylene and polyoxypropylene (non-ionic surfactant). Animals were anesthetized using isoflurane; while sedated, about 30 to 40 μl of the antifungal emulsion was applied on the tongue and spread throughout oral cavity. The treated mice were under sedation for additional 5 min under isoflurane. Animals were not given access to food and water for 1 h following the application.
Fungal burden was re-evaluated quantitatively after 3 and 6 days of treatment, using the same technique as the one used for initial evaluation. Randomly picked mice from each group was subjected to histopathological evaluation, after 6 days of treatment. Blood from randomly sacrificed mice from each treatment group was analyzed for any changes in the serum liver (AST, ALT, ALP etc.) and kidney enzymes (BUN, glucose, creatinine etc) levels.
Statistical analysis was performed using a significance level set at 0.05 (α) and a significant group size (n=8). Initial infection and antifungal treatment efficacy were determined using analysis of variance (ANOVA), expressed as log10 cfu, and Scheffe's multiple comparison test was used to determine the differences between various treatment groups.

[2] = system: Erythrocytes; details: determined previously (5), cited from earlier work

Which “additional tissue change in tongue section” value [1] does the source give for AKRHHGYKRKFH [Hsn5 12-mer] here?
Its value is “acanthosis of the stratum spinosum”.

Which hemolysis ([2]; IGP buffer) does the source give for GIGKFLHSAKKFGKAFVGEIMNS [Magainin-II] here?
Its hemolysis is 92%.

And the hemolysis ([2]; PBS)?
Its hemolysis is 0%.
